Test results reported in article PMC12486440, “Design, synthesis, and in silico studies of new benzofuran–pyrazole hybrids as multi-kinase inhibitors with potential antiproliferative activity” (RSC Advances, 2025).

Legend:
[1] = tested on: SNB-19; details: single dose 10 μM; CNS cancer
[2] = tested on: HOP-62; details: single dose 10 μM; non-small lung carcinoma
[3] = tested on: ACHN; details: single dose 10 μM; renal carcinoma
[4] = tested on: UACC-62; details: single dose 10 μM; melanoma
[5] = tested on: SK-OV-3; details: single dose 10 μM; ovarian carcinoma
[6] = tested on: UO-31; details: single dose 10 μM; renal carcinoma
[7] = tested on: NCI-H226; details: single dose 10 μM; non-small lung carcinoma
[8] = tested on: PC-3; details: single dose 10 μM; prostate carcinoma
[9] = tested on: HL-60(TB); details: single dose 10 μM; leukemia
[10] = tested on: K-562; details: single dose 10 μM; leukemia
[11] = tested on: MDA-MB-468; details: single dose 10 μM; breast carcinoma
[12] = tested on: MALME-3M; details: single dose 10 μM; melanoma
[13] = tested on: MOLT-4; details: single dose 10 μM; leukemia
[14] = tested on: CAKI-1; details: single dose 10 μM; renal carcinoma
[15] = tested on: RPMI-8226; details: single dose 10 μM; leukemia
[16] = tested on: TK-10; details: single dose 10 μM; renal carcinoma
[17] = tested on: 786–0; details: single dose 10 μM; renal carcinoma
[18] = tested on: NCI-H522; details: single dose 10 μM; non-small lung carcinoma
[19] = tested on: MCF7; details: single dose 10 μM; breast carcinoma
[20] = tested on: OVCAR-5; details: single dose 10 μM; ovarian carcinoma
[21] = tested on: EKVX; details: single dose 10 μM; non-small lung carcinoma
[22] = tested on: SF-539; details: single dose 10 μM; CNS cancer
[23] = tested on: LOX IMVI; details: single dose 10 μM; melanoma
[24] = tested on: CCRF-CEM; details: single dose 10 μM; leukemia
[25] = tested on: SF-295; details: single dose 10 μM; CNS cancer
[26] = tested on: T-47D; details: single dose 10 μM; breast carcinoma
[27] = tested on: SR; details: single dose 10 μM; leukemia
[28] = tested on: NCI 60 cancer cell line panel; assay: NCI 60 full panel summary; details: single dose 10 μM; mean over the NCI 60 panel
[29] = tested on: HOP-92; details: single dose 10 μM; non-small lung carcinoma
[30] = tested on: HCT-15; details: single dose 10 μM; colon cancer
[31] = tested on: M14; details: single dose 10 μM; melanoma
[32] = tested on: U251; details: single dose 10 μM; CNS cancer
[33] = tested on: SK-MEL-2; details: single dose 10 μM; melanoma
[34] = tested on: SK-MEL-28; details: single dose 10 μM; melanoma
[35] = tested on: HT29; details: single dose 10 μM; colon cancer
[36] = tested on: SK-MEL-5; details: single dose 10 μM; melanoma
[37] = tested on: MDA-MB-435; details: single dose 10 μM; melanoma
[38] = tested on: SN12C; details: single dose 10 μM; renal carcinoma
[39] = tested on: SW-620; details: single dose 10 μM; colon cancer
[40] = tested on: KM12; details: single dose 10 μM; colon cancer
[41] = tested on: BT-549; details: single dose 10 μM; breast carcinoma
[42] = tested on: A549/ATCC; details: single dose 10 μM; non-small lung carcinoma
[43] = tested on: UACC-257; details: single dose 10 μM; melanoma
[44] = tested on: HCT-116; details: single dose 10 μM; colon cancer
[45] = tested on: HCC-2998; details: single dose 10 μM; colon cancer
[46] = tested on: A498; details: single dose 10 μM; renal carcinoma
[47] = tested on: SNB-75; details: single dose 10 μM; CNS cancer

## 3-(5-(Benzofuran-2-yl)-1-phenyl-1H-pyrazol-3-yl)-1-(4-methoxyphenyl)prop-2-en-1-one [2b]
[1]
  GI%: 6.26%
[2]
  GI%: 2.25%
[3]
  GI%: 0.20%
[4]
  GI%: 7.77%
[5]
  GI%: 4.75%
[6]
  GI%: 14.83%
[7]
  GI%: 0.47%
[8]
  GI%: 4.83%
[9]
  GI%: 10.93%
[10]
  GI%: 8.35%
[11]
  GI%: 65.44%
[12]
  GI%: 1.29%
[13]
  GI%: 7.84%
[14]
  GI%: 12.51%
[15]
  GI%: 10.27%
[16]
  GI%: 6.22%
[17]
  GI%: 1.04%
[18]
  GI%: 0.40%
[19]
  GI%: 0.75%
[20]
  GI%: 2.97%
[21]
  GI%: 5.88%
[22]
  GI%: 3.20%
[23]
  GI%: 4.44%
[24]
  GI%: 19.37%
[25]
  GI%: 7.09%
[26]
  GI%: 83.54%
[27]
  GI%: 16.61%
[28]
  Mean GI%: 0.61%
[29]
  GI%: 18.73%

## c1ccc(C2=NNC(c3cn(-c4ccccc4)nc3-c3cc4ccccc4o3)C2)cc1 (centres unmarked) [3a, 3-(Benzofuran-2-yl)-4-(3-phenyl-4,5-dihydro-1H-pyrazol-5-yl)-1-phenyl-1H-pyrazole]
[30]
  GI%: 75.31%
[1]
  GI%: 5.98%
[2]
  GI%: 2.07%
[31]
  GI%: 0.57%
[4]
  GI%: 7.34%
[32]
  GI%: 2.33%
[5]
  GI%: 8.93%
[33]
  GI%: −6.14%
[6]
  GI%: 14.55%
[7]
  GI%: 8.13%
[34]
  GI%: 2.00%
[8]
  GI%: 8.08%
[9]
  GI%: 0.73%
[35]
  GI%: 54.87%
[10]
  GI%: 6.49%
[36]
  GI%: 0.18%
[12]
  GI%: 3.67%
[13]
  GI%: 0.33%
[14]
  GI%: 11.52%
[37]
  GI%: −6.37%
[38]
  GI%: 12.27%
[15]
  GI%: 2.58%
[39]
  GI%: 79.60%
[16]
  GI%: 10.65%
[40]
  GI%: 62.60%
[41]
  GI%: 0.80%
[18]
  GI%: 3.69%
[19]
  GI%: 7.06%
[42]
  GI%: 3.63%
[20]
  GI%: 3.74%
[21]
  GI%: 6.43%
[22]
  GI%: 6.00%
[24]
  GI%: 12.98%
[25]
  GI%: 9.51%
[26]
  GI%: 10.71%
[43]
  GI%: 6.06%
[44]
  GI%: 99.83%
[27]
  GI%: 15.96%
[45]
  GI%: 66.78%
[28]
  Mean GI%: 2.24%
[46]
  GI%: 6.22%
[47]
  GI%: −10.52%
[29]
  GI%: 22.19%

## COc1ccc(C2=NN(C(C)=O)C(c3cn(-c4ccccc4)nc3-c3cc4ccccc4o3)C2)cc1 (centres unmarked) [4b, 1-(5-(3-(Benzofuran-2-yl)-1-phenyl-1H-pyrazol-4-yl)-3-(4-methoxyphenyl)-4,5-dihydropyrazol-1-yl)ethanone]
[30]
  GI%: 0.50%
[1]
  GI%: 2.45%
[2]
  GI%: 2.33%
[4]
  GI%: 5.56%
[5]
  GI%: 4.82%
[6]
  GI%: 17.79%
[8]
  GI%: 6.35%
[9]
  GI%: 0.51%
[10]
  GI%: 5.81%
[11]
  GI%: 2.43%
[12]
  GI%: 0.92%
[13]
  GI%: 7.68%
[14]
  GI%: 13.20%
[15]
  GI%: 4.36%
[16]
  GI%: 7.73%
[18]
  GI%: 1.65%
[19]
  GI%: 9.85%
[22]
  GI%: 2.46%
[23]
  GI%: 2.30%
[24]
  GI%: 10.80%
[26]
  GI%: 2.42%
[27]
  GI%: 12.12%
[28]
  Mean GI%: −2.13%
[29]
  GI%: 8.59%

## CC(=O)N1N=C(c2ccccc2)CC1c1cn(-c2ccccc2)nc1-c1cc2ccccc2o1 (centres unmarked) [4a, 1-(5-(3-(Benzofuran-2-yl)-1-phenyl-1H-pyrazol-4-yl)-3-phenyl-4,5-dihydropyrazol-1-yl)ethanone]
[30]
  GI%: 2.61%
[1]
  GI%: 5.00%
[2]
  GI%: 1.18%
[4]
  GI%: 8.33%
[32]
  GI%: 1.60%
[5]
  GI%: 9.60%
[6]
  GI%: 15.50%
[7]
  GI%: 0.69%
[8]
  GI%: 8.29%
[9]
  GI%: 2.27%
[35]
  GI%: 0.65%
[10]
  GI%: 6.90%
[36]
  GI%: 0.15%
[11]
  GI%: 3.32%
[12]
  GI%: 1.02%
[13]
  GI%: 7.01%
[14]
  GI%: 13.36%
[15]
  GI%: 6.01%
[16]
  GI%: 11.62%
[17]
  GI%: 2.59%
[41]
  GI%: 9.06%
[18]
  GI%: 2.75%
[19]
  GI%: 11.19%
[20]
  GI%: 3.55%
[21]
  GI%: 6.06%
[22]
  GI%: 8.41%
[23]
  GI%: 4.25%
[24]
  GI%: 15.54%
[25]
  GI%: 5.69%
[26]
  GI%: 12.41%
[27]
  GI%: 17.00%
[28]
  Mean GI%: 1.66%
[47]
  GI%: 1.45%
[29]
  GI%: 16.24%

## 1-(1H-Benzo[d]imidazol-2-yl)-3-(5-(benzofuran-2-yl)-1-phenyl-1H-pyrazol-3-yl)prop-2-en-1-one [2d]
[1]
  GI%: 4.33%
[2]
  GI%: 0.08%
[5]
  GI%: 4.37%
[6]
  GI%: 7.86%
[9]
  GI%: 8.55%
[10]
  GI%: 4.77%
[11]
  GI%: 1.87%
[12]
  GI%: 0.07%
[13]
  GI%: 3.61%
[14]
  GI%: 10.24%
[38]
  GI%: 3.48%
[15]
  GI%: 0.67%
[16]
  GI%: 3.41%
[17]
  GI%: 0.74%
[41]
  GI%: 15.03%
[18]
  GI%: 0.40%
[19]
  GI%: 5.90%
[21]
  GI%: 2.15%
[22]
  GI%: 1.65%
[25]
  GI%: 4.39%
[26]
  GI%: 7.67%
[43]
  GI%: 1.66%
[27]
  GI%: 14.03%
[28]
  Mean GI%: −0.94%
[47]
  GI%: 20.70%
